Measurements: PMC8495455, “Discovery of a transdermally deliverable pentapeptide for activating AdipoR1 to promote hair growth” (EMBO Molecular Medicine, 2021)

Assays:
PDGFA protein = assay: Growth factor protein quantitation in DP cell medium, PDGFA; type: cell-based, human; settings: for protein_PDGFA: DP cell medium
Description: (§1) Next, we investigated the downstream effects of P5 on hair growth factor genes and proteins in DP cells. […] We tested whether P5 can also increase the mRNA levels and proteins of hair growth factors in DP cells: IGF‐1, VEGF, HGF, platelet‐derived growth factor alpha (PDGFA), and fibroblast growth factor (FGF) 7, which are known to induce or maintain the anagen phase of the hair cycle (Jindo et al, [1994]; Philpott et al, [1994]; Yano et al, [2001]; Jang, [2005]; Tomita et al, [2006]; Iino et al, [2007]).
(§2) Human DP cells were grown on a 100‐mm cell culture dish to 100% confluency. After washed by PBS three times, the cells were cultured with serum‐free DMEM and treated with P5. After 48 h, the medium was collected and filtered by a […]. The filtrate was then concentrated using a centrifugal concentrator (Vivaspin 6, 10‐kDa molecular weight cutoff, centrifuged 2,600 g at 4°C for 13 min, Sartorius Stedim Biotech). The signals of each protein in the concentrated media were detected and quantified, based on the enzyme‐linked immunosorbent assay (Human Cytokine Antibody Array C2000, RayBiotech).

VEGF protein = assay: Growth factor protein quantitation in DP cell medium, VEGF; type: cell-based, human; settings: for protein_VEGF: DP cell medium
Description: as §1, §2

[1] = tested on: p-AMPK in ORS and DP cells of human HFs; assay: IF staining p-AMPK of ex vivo cultured HF bulb; type: cell-based; settings: vs vehicle
Description: We next investigated whether P5 can reproduce the effects of APN on hair growth promotion ex vivo (Won et al, [2012]) using ex vivo human HF organ culture model. […] The Ki‐67‐positive cell portion of the matrix area in the P5‐treated HFs was higher than that in the vehicle‐treated group (Fig 3E).
Paraffin‐embedded mouse cutaneous back tissue was sectioned (4 μm thickness) and stained with hematoxylin and eosin. For IF staining, human ORS cells cultured in FiTC‐P5, sectioned paraffin‐embedded human HFs (7 μm thickness), and sectioned paraffin‐embedded mouse cutaneous dorsal tissue or human skin tissue (5 μm thickness) were incubated at 4°C overnight with the following primary antibodies diluted in the diluent reagent (Invitrogen): phospho‐AMPK (#2535, 1:100; Cell Signaling), Ki‐67 (#M7240, 1:200; Dako), versican (#ab177480, 1:200; Abcam), or AdipoR1 antibody (#ab126611, 1:200; Abcam). After three washes with PBS, the slides were incubated with the secondary Alexa Fluor 488‐labeled anti‐mouse or rabbit IgG antibody (#ab150077, #ab150113, 1:200; Invitrogen), or Alexa Fluor 594‐labeled anti‐rabbit IgG antibody (#a11012, 1:200; Invitrogen) at 25°C for 1 h. Nuclei were counterstained with 4′,6‐diamidino‐2‐phenylindole (DAPI; #D1306, 1:1,000; Invitrogen). […] IF intensity was observed and recorded with a Nikon Eclipse Ni‐E fluorescence microscope (Nikon).

FGF7 mRNA = assay: qRT-PCR growth factor gene expression in DP cells, FGF7; type: cell-based, human; settings: for mRNA_FGF7: DP cells
Description: as §1
Total RNA was isolated from P5‐treated DP cells using RNAiso Plus (#9109; TaKaRa). We used the total RNA (1 µg) for cDNA synthesis using a RevertAid First Strand cDNA Synthesis Kit (Thermo Fisher) according to the manufacturer's instructions. The mRNA expression levels were quantified on a 7500 Real‐time PCR System (Thermo Fisher) using TB Green Premix Ex Taq (TaKaRa Bio): human IGF‐1, VEGF, HGF, PDGFA, FGF7, and glyceraldehyde 3‐phosphate dehydrogenase (GAPDH) (Appendix Table S2). The relative expression levels of each gene were determined by the 2^‐ΔΔCT method.

[2] = tested on: AMPK phosphorylation in ORS cells; assay: Western blot p-AMPK, ORS cells; type: cell-based, human; settings: P5 0 - 50 μM, APN 2.5 μg/ml
Description: Following the confirmation of the molecular interaction between AdipoR1 and P5, we evaluated the activation of the intracellular signaling pathway by P5. We investigated whether APN treatment on ORS and DP cells could activate AMPK or ERK signaling pathways, which are previously known to be downstream effectors of AdipoR1 (Mao et al, [2006]; Deepa & Dong, [2009]; Shibata et al, [2012]). […] Next, for determination of whether both P5 and APN mediates the phosphorylation of AMPK through AdipoR1 in ORS and DP cells, the cells were transfected with AdipoR1 siRNA (Appendix Fig S1). […] Collectively, P5 activates AMPK signaling pathway through AdipoR1 in ORS and DP cells in vitro.
Human ORS and DP cells or skin tissue were lysed (RIPA lysis buffer; #20‐188; Merck Millipore). The obtained protein was then separated by 8% SDS–PAGE and transferred to a polyvinylidene fluoride membrane (Amersham). The protein transferred membranes were incubated overnight with the specific antibodies. […] Antibody‐antigen complexes detected by enhanced chemiluminescent substrate (Thermo Fisher) were captured and quantified by Amersham imager 680 systems (GE Healthcare).

[3] = P5 5μM, relative to Control = 1, replicate 1
[4] = P5 5μM, relative to Control = 1, replicate 2
[5] = P5 5μM, relative to Control = 1, replicate 3
[6] = P5 25μM, relative to Control = 1, replicate 1
[7] = P5 25μM, relative to Control = 1, replicate 2
[8] = P5 25μM, relative to Control = 1, replicate 3
[9] = P5-treated DP cells, 48 h medium, n = 3

Question: Which protein_PDGFA (PDGFA protein; [3]) does the source give for “GLYYF [P5, GST-fused (GST-P5) in pulldown assays]” here?
Answer: 2.032

Question: What about the protein_PDGFA (PDGFA protein; [4]) of the same substance?
Answer: 1.0925

Question: And the protein_PDGFA (PDGFA protein; [5])?
Answer: 1.228

Question: What about the protein_PDGFA (PDGFA protein; [6]) of the same substance?
Answer: 3.073

Question: And the protein_PDGFA (PDGFA protein; [7])?
Answer: 1.25

Question: And the protein_PDGFA (PDGFA protein; [8])?
Answer: 1.481

Question: What about the “PDGFA protein expression level” value (PDGFA protein; [9]) of the same substance?
Answer: elevated

Question: And the protein_VEGF (VEGF protein; [3])?
Answer: 1.476

Question: And the protein_VEGF (VEGF protein; [4])?
Answer: 1.303

Question: And the protein_VEGF (VEGF protein; [5])?
Answer: 1.526

Question: And the protein_VEGF (VEGF protein; [6])?
Answer: 1.967

Question: And the protein_VEGF (VEGF protein; [7])?
Answer: 2.185

Question: And the protein_VEGF (VEGF protein; [8])?
Answer: 1.674

Question: And the “VEGF protein expression level” value (VEGF protein; [9])?
Answer: elevated

Question: What about the “p-AMPK in HF bulb (IF staining)” value [1] of the same substance?
Answer: prominently detected in ORS and DP cells

Question: And the mRNA_FGF7 (FGF7 mRNA; [3])?
Answer: 1.288

Question: What about the mRNA_FGF7 (FGF7 mRNA; [4]) of the same substance?
Answer: 1.147

Question: What about the mRNA_FGF7 (FGF7 mRNA; [5]) of the same substance?
Answer: 3.986

Question: And the mRNA_FGF7 (FGF7 mRNA; P5 5μM, relative to Control = 1, replicate 4)?
Answer: 1.127

Question: What about the mRNA_FGF7 (FGF7 mRNA; P5 5μM, relative to Control = 1, replicate 5) of the same substance?
Answer: 3.017

Question: What about the mRNA_FGF7 (FGF7 mRNA; P5 5μM, relative to Control = 1, replicate 6) of the same substance?
Answer: 4.5839

Question: And the mRNA_FGF7 (FGF7 mRNA; [6])?
Answer: 1.191

Question: And the mRNA_FGF7 (FGF7 mRNA; [7])?
Answer: 1.18

Question: What about the mRNA_FGF7 (FGF7 mRNA; [8]) of the same substance?
Answer: 4.101

Question: What about the mRNA_FGF7 (FGF7 mRNA; P5 25μM, relative to Control = 1, replicate 4) of the same substance?
Answer: 1.133

Question: And the mRNA_FGF7 (FGF7 mRNA; P5 25μM, relative to Control = 1, replicate 5)?
Answer: 2.672

Question: And the mRNA_FGF7 (FGF7 mRNA; P5 25μM, relative to Control = 1, replicate 6)?
Answer: 4.897

Question: What about the “FGF7 mRNA expression” value (FGF7 mRNA; P5-treated DP cells, n = 6) of the same substance?
Answer: significantly increased

Question: And the “Phosphorylation of AMPK, ORS cells” value [2]?
Answer: concentration‐dependent phosphorylation of AMPK
